Results on five compounds are retold here after BindingDB's records for doi:10.7270/Q2FF3QRT (University of Pittsburgh, 2006).

This test deals with T1, M-phase inducer phosphatase 2 (Homo sapiens, UniProt P30305).
T1 sequence (P30305 whole entry): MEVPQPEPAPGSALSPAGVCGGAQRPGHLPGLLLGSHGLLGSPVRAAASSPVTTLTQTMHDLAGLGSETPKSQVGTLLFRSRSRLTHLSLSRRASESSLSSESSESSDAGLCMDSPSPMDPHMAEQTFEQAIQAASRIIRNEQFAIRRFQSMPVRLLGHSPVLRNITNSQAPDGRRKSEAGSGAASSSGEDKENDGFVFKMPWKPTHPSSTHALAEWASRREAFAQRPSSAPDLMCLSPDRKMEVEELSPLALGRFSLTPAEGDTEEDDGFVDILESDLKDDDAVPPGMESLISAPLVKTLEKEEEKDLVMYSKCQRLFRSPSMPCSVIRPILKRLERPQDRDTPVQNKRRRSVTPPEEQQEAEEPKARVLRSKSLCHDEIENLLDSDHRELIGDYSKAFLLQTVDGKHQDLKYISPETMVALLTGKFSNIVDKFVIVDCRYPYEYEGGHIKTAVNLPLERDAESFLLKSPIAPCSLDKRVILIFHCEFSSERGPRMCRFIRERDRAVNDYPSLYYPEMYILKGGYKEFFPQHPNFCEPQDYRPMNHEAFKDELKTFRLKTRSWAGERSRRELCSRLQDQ
Description: inhibition of Cdc25B catalytic domain activity – biochemical, dose response, selectivity assay, confirmation (AID 443).
Take `CCCCC[C@H](O)C=C[C@H]1C=CC(=O)[C@@H]1C/C=C\CCCC(=O)O` [(Z)-7-[(1R,5S)-2-oxidanylidene-5-[(E,3S)-3-oxidanyloct-1-enyl]cyclopent-3-en-1-yl]hept-5-enoic acid]: the half-maximal inhibitory concentration (IC50) (commonly the point on the concentration scale where inhibition reaches its midpoint) was determined as 43.1 µM.
Next, `COc1ccc(Cn2c(C)nc3c(c2=O)c2nc4ccccc4nc2n3Cc2ccco2)cc1` [MLS000079944]: 31.5 µM; `CC(C)Cn1c(N)c(C(=O)COC(=O)c2cc(-c3ccco3)nc3ccccc23)c(=O)n(C)c1=O` [2-(2-furanyl)-4-quinolinecarboxylic acid [2-[4-amino-1-methyl-3-(2-methylpropyl)-2,6-dioxo-5-pyrimidinyl]-2-oxoethyl] ester]: 13.1 µM; `CCn1nc(-c2ccccc2)nc2c(=O)n(C)c(=O)nc1-2` [1-Ethyl-6-methyl-3-phenyl-1H-pyrimido[5,4-e][1,2,4]triazine-5,7-dione]: 0.223 µM.
Turning to `Cc1ccc2c(c1C)NC(C(=O)O)C1CC=CC21` (stereo not given), the 50% inhibitory concentration (IC50) amounted to 10.6 µM.
